This series in a line: Coating thickness by optical profilometry. It is filed as physicochemical. Particulars: submersion coating on PVC-coated glass slide. Here is the method:
For surface topology studies, PVC powder was purchased and dissolved in 3:2 cyclopentanone:tetrahydrofuran at a concentration of 10 mg/mL. PVC solution (50 μL) was used to spin-coat 1 cm diameter glass slides for 1 minute at 3,000 RPM. The PVC-coated slides were allowed to dry for 24 hours prior to submersion coating in 2 mL AMPA solutions. Coated products were removed from submersion and dried in 24-well plates under aseptic conditions for at least 24 hours prior to characterization. The coating was assessed via contact angle to evaluate surface hydrophilicity and optical profilometry to measure coating thickness. […] Electron microscopy of the AMPA coatings has shown no presence of micelles.

Where a SMILES comes first, the peptide text is derived from it. Bridges are numbered along the chain shown (N, C = ends). [ ]: non-standard residue; d: D form. The star is where a group is joined. d2Nal = N[C@H](Cc1ccc2ccccc2c1)C(=O)O; Palmitoyl = CCCCCCCCCCCCCCCC(=O)*

Turning to `CCCCCCCCCCCCCCCC(=O)NCCCC[C@H](NC(=O)[C@H]1CCCN1C(=O)[C@H](NC(=O)[C@@H]1CCCCNC(=O)C[C@H](NC(=O)[C@@H](NC(=O)[C@H](CCCNC(=N)N)NC(=O)[C@@H](NC(=O)[C@H](CCCNC(=N)N)NC(=O)[C@@H](NC(=O)[C@H](CCCNC(=N)N)NC(=O)[C@@H](N)Cc2ccccc2)[C@@H](C)CC)C(C)C)C(C)C)C(=O)N[C@@H](CCCNC(=N)N)C(=O)N[C@@H](CCCNC(=N)N)C(=O)N[C@H](Cc2ccc3ccccc3c2)C(=O)N[C@@H](Cc2ccccc2)C(=O)N[C@@H](Cc2c[nH]c3ccccc23)C(=O)N[C@@H](CCCNC(=N)N)C(=O)N1)C(C)C)C(N)=O` [AB01-KPalm, FRIRVRV[DRR-dNal(2′)-FWRK]dV-Dp [SEQ. ID. NO. 1]-K(Palm)] (H-FRIRVRVDRR[d2Nal]FWRK[dV][dP]K(Palmitoyl)-NH2; lactam 8-15; N-terminus and C-terminus assumed), the coating thickness entry is “approximately 30 nm”.

Source of the values: US20180194967A1, “ANTIMICROBIAL PEPTIDE AMPHIPHILE COATINGS” (priority 2017, published 2018).
